Results reported in US20100168079A1 (priority 2008, published 2010).
pIC50: −log10 of the molar value.

Target: T1, human S1P1 receptors (Homo sapiens, UniProt P21453)
T1 construct: myc (N); expressed in transfected cells; host or cells: HeLa (human cervix carcinoma, ATCC CCL2), HeLa-S1P1/Gα16 cell clone 1
Experiment: Human S1P1 Receptor Calcium FLIPR Antagonist Assay (HeLa Gα16 S1P1)
Assay type: cell-based
Conditions: relative antagonism of Ca2+ signal evoked by probing agonist GNF-AC-1 at EC80; HeLa-S1P1/Gα16 cells
Experimental: Human S1P1 Receptor Calcium FLIPR Antagonist Assay
The cells are plated in 384 well black plates (10′000 cells per well). […] After washing, the cells are transferred to the FLIPR. The test compounds are added at different concentrations […]) in HBSS in the presence of 0.1% BSA and changes in fluorescence are recorded (indication of agonism). The probing agonist is added 20-30 minutes afterwards to the wells at a concentration giving 80% of the maximal activity (EC80). After each addition, time points are collected as follows: 20 time points (2 seconds) before the addition of the agonist (Fmin) and 60 time points (1 or 2 seconds) after the addition of the probing agonist. This allows the determination of the maximal fluorescence (Fmax). The ratio (Fmax-Fmin)/Fmin is plotted against the log of the concentration of the test compounds and the IC50 (relative antagonism) is calculated using the XLfit-4 software. […] A concentration-response curve of the probing agonist is determined on each plate in parallel.

T1 sequence (P21453 whole entry): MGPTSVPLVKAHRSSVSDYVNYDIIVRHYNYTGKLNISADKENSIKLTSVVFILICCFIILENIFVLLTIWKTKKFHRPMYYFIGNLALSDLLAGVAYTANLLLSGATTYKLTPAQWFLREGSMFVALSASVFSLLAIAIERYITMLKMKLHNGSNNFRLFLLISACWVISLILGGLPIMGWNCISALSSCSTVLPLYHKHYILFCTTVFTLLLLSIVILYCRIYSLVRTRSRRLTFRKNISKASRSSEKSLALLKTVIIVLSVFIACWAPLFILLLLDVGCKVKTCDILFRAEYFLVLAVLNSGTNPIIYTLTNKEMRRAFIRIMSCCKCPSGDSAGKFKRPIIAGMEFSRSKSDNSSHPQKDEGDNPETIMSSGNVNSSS

Work on `COc1ccc(C(C)Nc2cccc(-c3cc(C)c(C(=O)N[C@@H](C)C(=O)O)c(C)c3)c2)cc1Cl` (stereo partly drawn) [Example 1, (S)-2-({3′-[1-(3-Chloro-4-methoxy-phenyl)-ethylamino]-3,5-dimethyl-biphenyl-4-carbonyl}-amino)-propionic acid] yielded a pIC50 of 8.70.
`CCC(Nc1cccc(-c2cc(C)c(C(=O)N[C@@H](C)C(=O)O)c(C)c2)c1)c1ccc(Cl)c(C)c1` (stereo partly drawn) [Example 5, (S)-2-({3′-[1-(4-Chloro-3-methyl-phenyl)-propylamino]-3,5-dimethyl-biphenyl-4-carbonyl}-amino)-propionic acid] gave a pIC50 of 8.70.
`Cc1cc(-c2cccc(NC(C)c3ccc(Cl)c(F)c3)c2)cc(C)c1C(=O)N[C@@H](C)C(=O)O` (stereo partly drawn) [Example 9, (S)-2-({3′-[1-(4-Chloro-3-fluoro-phenyl)-ethylamino]-3,5-dimethyl-biphenyl-4-carbonyl}-amino)-propionic acid] gave a pIC50 of 8.52.
Molecule `Cc1cc(-c2cccc(NC(C)c3ccc(Cl)c(Cl)c3)c2)cc(C)c1C(=O)N[C@@H](C)C(=O)O` (stereo partly shown) [Example 10] has a pIC50 of 8.70.
`Cc1ccc(C(C)Nc2cccc(-c3cc(C)c(C(=O)N[C@@H](C)C(=O)O)c(C)c3)c2)cc1C` (stereo partly drawn) [Example 11, (S)-2-({3′-[1-(3,4-Dimethylphenyl)-ethylamino]-3,5-dimethyl-biphenyl-4-carbonyl}-amino)-propionic acid] showed a pIC50 of 8.40.
`Cc1cc(C(C)Nc2cccc(-c3cc(C)c(C(=O)N[C@@H](C)C(=O)O)c(C)c3)c2)c(C)cc1Cl` (stereo partly drawn) [Example 13, (S)-2-({3′-[1-(4-Chloro-2,5-dimethyl-phenyl)-ethylamino]-3,5-dimethyl-biphenyl-4-carbonyl}-amino)-propionic acid] was tested, and the pIC50 was 8.30.
`Cc1cc(-c2cccc(NC(C)c3ccc(Cl)c(C(F)(F)F)c3)c2)cc(C)c1C(=O)N[C@@H](C)C(=O)O` (stereo partly shown) [Example 14] gave a pIC50 of 8.40.
In the case of `COc1cc(C(C)Nc2cccc(-c3cc(C)c(C(=O)N[C@@H](C)C(=O)O)c(C)c3)c2)ccc1F` (stereo partly drawn) [Example 15, (S)-2-({3′-[1-(4-Fluoro-3-methoxy-phenyl)-ethylamino]-3,5-dimethyl-biphenyl-4-carbonyl}-amino)-propionic acid], the pIC50 was 8.70.
In the case of `Cc1cc(C(C)Nc2cccc(-c3cc(C)c(C(=O)N[C@@H](C)C(=O)O)c(C)c3)c2)c(F)cc1Cl` (stereo partly drawn) [Example 16, (S)-2-({3′-[1-(4-Chloro-2-fluoro-5-methyl-phenyl)-ethylamino]-3,5-dimethyl-biphenyl-4-carbonyl}-amino)-propionic acid], the pIC50 was 8.70.
Molecule `Cc1cc(-c2cccc(NC(C)c3ccc(F)c(OC(F)(F)F)c3)c2)cc(C)c1C(=O)N[C@@H](C)C(=O)O` (stereo partly drawn) [Example 17, (S)-2-({3′-[1-(4-Fluoro-3-trifluoromethoxy-phenyl)-ethylamino]-3,5-dimethyl-biphenyl-4-carbonyl}-amino)-propionic acid] has a pIC50 of 8.30.
With `COc1ccc(C(C)Nc2cccc(-c3cc(C)c(C(=O)N[C@@H](C)C(=O)O)c(C)c3)c2)cc1F` (stereo partly drawn) [Example 18, (S)-2-({3′-[1-(3-Fluoro-4-methoxy-phenyl)-ethylamino]-3,5-dimethyl-biphenyl-4-carbonyl}-amino)-propionic acid] the pIC50 was 8.40.
`Cc1cc(F)cc(C(C)Nc2cccc(-c3cc(C)c(C(=O)N[C@@H](C)C(=O)O)c(C)c3)c2)c1` (stereo partly drawn) [Example 19, (S)-2-({3′-[1-(3-Fluoro-5-methyl-phenyl)-ethylamino]-3,5-dimethyl-biphenyl-4-carbonyl}-amino)-propionic acid] was tested, and the pIC50 was 8.70.
Molecule `Cc1cc(C(C)Nc2cccc(-c3cc(C)c(C(=O)N[C@@H](CO)C(=O)O)c(C)c3)c2)ccc1Cl` (stereo partly drawn) [Example 21, (S)-2-({3′-[1-(4-Chloro-3-methyl-phenyl)-ethylamino]-3,5-dimethyl-biphenyl-4-carbonyl}-amino)-3-hydroxy-propionic acid] has a pIC50 of 8.70.
With `CCC(Nc1cccc(-c2cc(C)c(C(=O)NC3(C(=O)O)CC3)c(C)c2)c1)c1ccc(Cl)c(C)c1` (stereo not shown) [Example 27, 1-({3′-[1-(4-Chloro-3-methyl-phenyl)-propylamino]-3,5-dimethyl-biphenyl-4-carbonyl}-amino)-cyclopropanecarboxylic acid] the pIC50 was 8.70.
Work on `Cc1cc(C)cc(C(C)Nc2cccc(-c3cc(C)c(C(=O)N[C@@H](C)C(=O)O)c(C)c3)c2)c1` (stereo partly drawn) [Example 28, (S)-2-({3′-[1-(3,5-Dimethyl-phenyl)-ethylamino]-3,5-dimethyl-biphenyl-4-carbonyl}-amino)-propionic acid] yielded a pIC50 of 8.52.
Work on `Cc1cc(C(C)Nc2cccc(-c3cc(C)c(C(=O)N[C@@H](C)C(=O)O)c(C)c3)c2)cc(C)c1Cl` (stereo partly drawn) [Example 29, (S)-2-({3′-[1-(4-Chloro-3,5-dimethyl-phenyl)-ethylamino]-3,5-dimethyl-biphenyl-4-carbonyl}-amino)-propionic acid] yielded a pIC50 of 8.70.
In the case of `COc1ccc(C(C)Nc2cccc(-c3cc(C)c(C(=O)N[C@@H](C)C(=O)O)c(C)c3)c2)cc1C` (stereo partly drawn) [Example 30, (S)-2-({3′-[1-(4-Methoxy-3-methyl-phenyl)-ethylamino]-3,5-dimethyl-biphenyl-4-carbonyl}-amino)-propionic acid], the pIC50 was 8.70.
`COc1ccc(C(C)Nc2cccc(-c3cc(C)c(C(=O)N[C@@H](C)C(=O)O)c(C)c3)c2)cc1C(F)(F)F` (stereo partly drawn) [Example 33, (S)-2-({3′-[1-(4-Methoxy-3-trifluoromethyl-phenyl)-ethylamino]-3,5-dimethyl-biphenyl-4-carbonyl}-amino)-propionic acid] gave a pIC50 of 9.00.
Molecule `COc1c(F)cc(C(C)Nc2cccc(-c3cc(C)c(C(=O)N[C@@H](C)C(=O)O)c(C)c3)c2)cc1F` (stereo partly drawn) [Example 34, (S)-2-({3′-[1-(3,5-Difluoro-4-methoxy-phenyl)-ethylamino]-3,5-dimethyl-biphenyl-4-carbonyl}-amino)-propionic acid] has a pIC50 of 8.52.
For `COc1ccc(C(C)Nc2cccc(-c3cc(C)c(C(=O)N[C@@H](C)C(=O)O)c(C)c3)c2)c(F)c1` (stereo partly drawn) [Example 35, (S)-2-({3′-[1-(2-Fluoro-4-methoxy-phenyl)-ethylamino]-3,5-dimethyl-biphenyl-4-carbonyl}-amino)-propionic acid], the pIC50 was 8.10.
With `COc1c(F)cc(C(C)Nc2cccc(-c3cc(C)c(C(=O)N[C@@H](C)C(=O)O)c(C)c3)c2)cc1Cl` (stereo partly drawn) [Example 36, (S)-2-({3′-[(3-Chloro-5-fluoro-4-methoxy-phenyl)-ethylamino]-3,5-dimethyl-biphenyl-4-carbonyl}-amino)-propionic acid] the pIC50 was 8.70.
`COc1c(C)cc(C(C)Nc2cccc(-c3cc(C)c(C(=O)N[C@@H](C)C(=O)O)c(C)c3)c2)cc1C` (stereo partly drawn) [Example 37, (S)-2-({3′-[1-(4-Methoxy-3,5-dimethyl-phenyl)-ethylamino]-3,5-dimethyl-biphenyl-4-carbonyl}-amino)-propionic acid] showed a pIC50 of 8.70.
Work on `Cc1cc([C@@H](C)Nc2cccc(-c3ccc(C(=O)N[C@@H](C)C(=O)O)c(C)c3)c2)ccc1Cl` [Example 40, (S)-2-({3′-[(R)-1-(4-Chloro-3-methyl-phenyl)-ethylamino]-3-methyl-biphenyl-4-carbonyl}-amino)-propionic acid] yielded a pIC50 of 8.70.
`CCc1cc(-c2cccc(NC(C)c3ccc(Cl)c(C)c3)c2)ccc1C(=O)N[C@@H](C)C(=O)O` (stereo partly drawn) [Example 42, (S)-2-({3′-[1-(4-Chloro-3-methyl-phenyl)-ethylamino]-3-ethyl-biphenyl-4-carbonyl}-amino)-propionic acid] showed a pIC50 of 8.52.
With `CCc1cc(-c2cccc(NC(C)c3ccc(Cl)c(C)c3)c2)ccc1C(=O)N(C)[C@@H](C)C(=O)O` (stereo partly drawn) [Example 43, (S)-2-({3′-[1-(4-Chloro-3-methyl-phenyl)-ethylamino]-3-ethyl-biphenyl-4-carbonyl}-methyl-amino)-propionic acid] the pIC50 was 8.52.
`CCc1cc(-c2cccc(NC(C)c3cc(C)c(Cl)c(C)c3)c2)ccc1C(=O)N(C)[C@@H](C)C(=O)O` (stereo partly drawn) [Example 45, (S)-2-({3′-[1-(4-Chloro-3,5-dimethyl-phenyl)-ethylamino]-3-ethyl-biphenyl-4-carbonyl}-methyl-amino)-propionic acid] was tested, and the pIC50 was 8.30.
For `Cc1cc(C(C)Nc2cccc(-c3ccc(C(=O)N[C@@H](C)C(=O)O)c(Cl)c3)c2)ccc1Cl` (stereo partly drawn) [Example 46, (S)-2-({3-Chloro-3′-[1-(4-chloro-3-methyl-phenyl)-ethylamino]-biphenyl-4-carbonyl}-amino)-propionic acid], the pIC50 was 8.70.
Molecule `Cc1cc(C(C)Nc2cccc(-c3ccc(C(=O)N(C)[C@@H](C)C(=O)O)c(Cl)c3)c2)ccc1Cl` (stereo partly drawn) [Example 47, (S)-2-({3-Chloro-3′-[1-(4-chloro-3-methyl-phenyl)-ethylamino]-biphenyl-4-carbonyl}-methyl-amino)-propionic acid] has a pIC50 of 8.70.
Molecule `Cc1cc(C(C)Nc2cccc(-c3ccc(C(=O)N(C)[C@@H](C)C(=O)O)c(F)c3)c2)ccc1Cl` (stereo partly drawn) [Example 49, (S)-2-({3′-[1-(4-Chloro-3-methyl-phenyl)-ethylamino]-3-fluoro-biphenyl-4-carbonyl}-methyl-amino)-propionic acid] has a pIC50 of 8.52.
`Cc1cc(C(C)Nc2cccc(-c3cc(F)c(C(=O)N[C@@H](C)C(=O)O)c(F)c3)c2)ccc1Cl` (stereo partly drawn) [Example 50, (S)-2-({3′-[1-(4-Chloro-3-methyl-phenyl)-ethylamino]-3,5-difluoro-biphenyl-4-carbonyl}-amino)-propionic acid] gave a pIC50 of 8.52.
In the case of `Cc1cc(C(C)Nc2cccc(-c3cc(F)c(C(=O)N(C)[C@@H](C)C(=O)O)c(F)c3)c2)ccc1Cl` (stereo partly drawn) [Example 51, (S)-2-({3′-[1-(4-Chloro-3-methyl-phenyl)-ethylamino]-3,5-difluoro-biphenyl-4-carbonyl}-methyl-amino)-propionic acid], the pIC50 was 8.22.
